# From PubChem BioAssay AID292 (DTP/NCI, 2004)
# Values joined by “and” are separate entries in the source; they are usually repeats but may differ in a detail not shown here. Equal entries are not always repeated. Inconclusive results and toxic doses are left out.
# Tested on: B6C3F1 mice, ip Sarcoma M5076, median survival T/C
# Experiment: NCI In Vivo Anticancer Drug Screen. Data for tumor model Sarcoma M5076 (intraperitoneal) in B6C3F1 mice
# Conditions: endpoint: median survival time, higher = longer survival
# Outline: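 The readout is a ratio of survival in drug-treated animals to survival in animals given vehicle alone, taken in mice bearing a transplanted tumour line.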
# [1] = dose: 50.0 mg/kg/injection, schedule: Q04DX004 (ip), vehicle: Klucel (hydroxypropylcellulose) (HPC)
# [2] = dose: 100.0 mg/kg/injection, schedule: Q04DX004 (ip), vehicle: Klucel (hydroxypropylcellulose) (HPC)
# [3] = dose: 200.0 mg/kg/injection, schedule: Q04DX004 (ip), vehicle: Klucel (hydroxypropylcellulose) (HPC)
# [4] = dose: 400.0 mg/kg/injection, schedule: Q04DX004 (ip), vehicle: Klucel (hydroxypropylcellulose) (HPC)
# [5] = dose: 25.0 mg/kg/injection, schedule: Q04DX004 (ip), vehicle: Klucel (hydroxypropylcellulose) (HPC)
# [6] = dose: 7.5 mg/kg/injection, schedule: Q04DX004 (ip), vehicle: saline with Tween-80
# [7] = dose: 15.0 mg/kg/injection, schedule: Q04DX004 (ip), vehicle: saline with Tween-80
structure (smiles),measurement,setting,value
N#CC1C(=O)NC(=O)C(C#N)C1c1ccc(Cl)c(Cl)c1 (configuration not stated),T/C,[1],102 % of control
same,T/C,[2],94 % of control
same,T/C,[3],99 % of control
same,T/C,[4],102 % of control
O=[n+]1c2c(n([O-])c3cc(Cl)c(Cl)cc31)CCCC2,T/C,"dose: 18.75 mg/kg/injection, schedule: Q04DX004 (ip), vehicle: saline with Tween-80",99 % of control
same,T/C,"dose: 37.5 mg/kg/injection, schedule: Q04DX004 (ip), vehicle: saline with Tween-80",97 % of control
same,T/C,"dose: 75.0 mg/kg/injection, schedule: Q04DX004 (ip), vehicle: saline with Tween-80",100 % of control
same,T/C,"dose: 150.0 mg/kg/injection, schedule: Q04DX004 (ip), vehicle: saline with Tween-80",97 % of control
same,T/C,"dose: 300.0 mg/kg/injection, schedule: Q04DX004 (ip), vehicle: saline with Tween-80",95 % of control
O=C1NC(=O)N(c2ccc(Cl)c(Cl)c2)C1=O,T/C,[1],93 % of control
same,T/C,[2],95 % of control
same,T/C,[3],92 % of control
same,T/C,[4],89 % of control
CCOC(=O)C1=C(C)O/C(=C/c2cccc(Cl)c2)C1=O,T/C,"dose: 100.0 mg/kg/injection, schedule: Q04DX004 (ip), vehicle: saline with Tween-80",99 % of control
same,T/C,"dose: 200.0 mg/kg/injection, schedule: Q04DX004 (ip), vehicle: saline with Tween-80",100 % of control
same,T/C,"dose: 400.0 mg/kg/injection, schedule: Q04DX004 (ip), vehicle: saline with Tween-80",93 % of control
O=[n+]1c2c(n([O-])c3ccccc31)CCC2,T/C,"dose: 21.9 mg/kg/injection, schedule: Q04DX004 (ip), vehicle: saline with Tween-80",103 % of control
same,T/C,"dose: 43.75 mg/kg/injection, schedule: Q04DX004 (ip), vehicle: saline with Tween-80",102 % of control
same,T/C,"dose: 87.5 mg/kg/injection, schedule: Q04DX004 (ip), vehicle: saline with Tween-80",104 % of control
same,T/C,"dose: 175.0 mg/kg/injection, schedule: Q04DX004 (ip), vehicle: saline with Tween-80",107 % of control and 108 % of control
same,T/C,"dose: 350.0 mg/kg/injection, schedule: Q04DX004 (ip), vehicle: saline with Tween-80",109 % of control and 110 % of control
c1ccc2[nH]c(CN(CCN(Cc3nc4ccccc4[nH]3)Cc3nc4ccccc4[nH]3)Cc3nc4ccccc4[nH]3)nc2c1,T/C,"dose: 3.12 mg/kg/injection, schedule: Q04DX004 (ip), vehicle: other",103 % of control
same,T/C,"dose: 6.25 mg/kg/injection, schedule: Q04DX004 (ip), vehicle: other",108 % of control
same,T/C,"dose: 12.5 mg/kg/injection, schedule: Q04DX004 (ip), vehicle: other",100 % of control
COc1cc([C@@H]2c3cc4c(cc3[C@@H](OC3OC5COC(C)OC5C(O)C3O)[C@H]3COC(=O)[C@H]23)OCO4)cc(OC)c1O (some centres not stated),T/C,"dose: 4.0 mg/kg/injection, schedule: Q04DX005 (ip), vehicle: saline",150 % of control
same,T/C,"dose: 8.0 mg/kg/injection, schedule: Q04DX004 (ip), vehicle: saline",157 % of control
same,T/C,"dose: 8.0 mg/kg/injection, schedule: Q04DX005 (ip), vehicle: saline",154 % of control
same,T/C,"dose: 16.0 mg/kg/injection, schedule: Q04DX004 (ip), vehicle: saline",153 % of control
same,T/C,"dose: 16.0 mg/kg/injection, schedule: Q04DX005 (ip), vehicle: saline",198 % of control
same,T/C,"dose: 32.0 mg/kg/injection, schedule: Q04DX004 (ip), vehicle: saline",172 % of control and 187 % of control
same,T/C,"dose: 32.0 mg/kg/injection, schedule: Q04DX005 (ip), vehicle: saline",319 % of control
O=C(NNC(=O)c1cccc(C(=O)NNC(=O)c2ccc(Cl)c(Cl)c2)n1)c1ccc(Cl)c(Cl)c1,T/C,[5],102 % of control
same,T/C,[1],96 % of control
O=S1(=O)C(c2ccccc2)=C(O)c2cc3ccccc3nc21,T/C,"dose: 31.25 mg/kg/injection, schedule: Q04DX004 (ip), vehicle: saline with Tween-80",97 % of control
same,T/C,"dose: 62.5 mg/kg/injection, schedule: Q04DX004 (ip), vehicle: saline with Tween-80",108 % of control
same,T/C,"dose: 125.0 mg/kg/injection, schedule: Q04DX004 (ip), vehicle: saline with Tween-80",93 % of control
same,T/C,"dose: 250.0 mg/kg/injection, schedule: Q04DX004 (ip), vehicle: saline with Tween-80",102 % of control
O=NN(CCCl)C(=O)NCCCl,T/C,"dose: 1.5 mg/kg/injection, schedule: Q04DX004 (ip), vehicle: saline + alcohol",116 % of control
same,T/C,"dose: 6.0 mg/kg/injection, schedule: Q04DX004 (ip), vehicle: saline + alcohol",163 % of control and 164 % of control
same,T/C,"dose: 12.0 mg/kg/injection, schedule: Q04DX004 (ip), vehicle: saline + alcohol",224 % of control and 292 % of control
same,T/C,"dose: 24.0 mg/kg/injection, schedule: Q04DX004 (ip), vehicle: saline + alcohol",248 % of control and 292 % of control
same,T/C,"dose: 48.0 mg/kg/injection, schedule: Q04DX004 (ip), vehicle: saline + alcohol",244 % of control
CCOc1c2c(nn(C)c1=O)Oc1ccccc1N2CCCN1CCOCC1,T/C,[6],92 % of control
same,T/C,[7],106 % of control
same,T/C,"dose: 30.0 mg/kg/injection, schedule: Q04DX004 (ip), vehicle: saline with Tween-80",113 % of control
same,T/C,"dose: 60.0 mg/kg/injection, schedule: Q04DX004 (ip), vehicle: saline with Tween-80",97 % of control
O=S(=O)(O)SCCNCCCCC1CCCCC1,T/C,"dose: 3.75 mg/kg/injection, schedule: Q04DX004 (ip), vehicle: saline with Tween-80",100 % of control
same,T/C,[6],99 % of control
same,T/C,[7],101 % of control
CCOc1ccc(-c2nc3ccc(-c4nc5ccc(N6CCN(C)CC6)cc5[nH]4)cc3[nH]2)cc1,T/C,"dose: 3.12 mg/kg/injection, schedule: Q04DX004 (ip), vehicle: saline",100 % of control
same,T/C,"dose: 6.25 mg/kg/injection, schedule: Q04DX004 (ip), vehicle: saline",88 % of control
same,T/C,"dose: 12.5 mg/kg/injection, schedule: Q04DX004 (ip), vehicle: saline",100 % of control
same,T/C,"dose: 25.0 mg/kg/injection, schedule: Q04DX004 (ip), vehicle: saline",92 % of control
CCCCCC[Se][Se]CCCCCC,T/C,"dose: 3.12 mg/kg/injection, schedule: Q04DX004 (ip), vehicle: Klucel (hydroxypropylcellulose) (HPC)",123 % of control
same,T/C,"dose: 6.25 mg/kg/injection, schedule: Q04DX004 (ip), vehicle: Klucel (hydroxypropylcellulose) (HPC)",106 % of control
same,T/C,"dose: 12.5 mg/kg/injection, schedule: Q04DX004 (ip), vehicle: Klucel (hydroxypropylcellulose) (HPC)",114 % of control
same,T/C,[5],115 % of control
